In patent publication US20160113282A1 (HONBU SANKEI CO., LTD., priority 2013, published 2016):

Tests used:
[1] = tested on: MDCK cells; experiment: Impairment in colony formation capability; assay type: cell-based, canine; settings: phosphoric acid buffer (FIG. 7)
[2] = tested on: feline caliciviruses; experiment: Sterilizing solution wrung from wet wipe, feline caliciviruses (Example 11)
[3] = tested on: feline calicivirus F4 strain; experiment: In vitro test in test tube, feline caliciviruses (Example 11); assay type: cell-based

With `OCl` [Sodium hypochlorite aqueous solution, sodium hypochlorite] the “concentration at which impairment in colony formation was observed” value [1] was no more than 5 ppm, the “number of infectious viruses” value ([2]; solution from wet wipe, 500 ppm (formulation 60 times), contact 1 min) was 3.5 ± 2.1 CPU/mL and the “number of infectious viruses” value ([2]; solution from wet wipe, 500 ppm (formulation 60 times), contact 5 min) was 2.9 ± 2.7 CPU/mL. For the same compound, the “number of infectious viruses” value ([2]; solution from wet wipe, 500 ppm (formulation 60 times), contact 10 min) was less than 100 CPU/mL, the “number of infectious viruses” value ([2]; solution from wet wipe, 750 ppm (formulation 40 times), contact 1 min) was less than 100 CPU/mL and the “number of infectious viruses” value ([2]; solution from wet wipe, 750 ppm (formulation 40 times), contact 5 min) was less than 100 CPU/mL. For the same compound, the “number of infectious viruses” value ([2]; solution from wet wipe, 750 ppm (formulation 40 times), contact 10 min) was less than 100 CPU/mL, the “number of infectious viruses” value ([2]; solution from wet wipe, 1000 ppm (formulation 30 times), contact 1 min) was less than 100 CPU/mL and the “number of infectious viruses” value ([2]; solution from wet wipe, 1000 ppm (formulation 30 times), contact 5 min) was less than 100 CPU/mL. For the same compound, the “number of infectious viruses” value ([2]; solution from wet wipe, 1000 ppm (formulation 30 times), contact 10 min) was less than 100 CPU/mL, the “number of infectious viruses” value ([2]; solution from wet wipe, 3000 ppm (formulation 10 times), contact 1 min) was less than 100 CPU/mL and the “number of infectious viruses” value ([2]; solution from wet wipe, 3000 ppm (formulation 10 times), contact 5 min) was less than 100 CPU/mL. The “number of infectious viruses” value ([2]; solution from wet wipe, 3000 ppm (formulation 10 times), contact 10 min) was less than 100 CPU/mL, the “number of infectious viruses” value ([2]; wet wipe stored Day 0, 1000 ppm, contact 1 min) was less than 100 and the “number of infectious viruses” value ([2]; wet wipe stored Day 0, 1000 ppm, contact 5 min) was less than 100. For the same compound, the “number of infectious viruses” value ([2]; wet wipe stored Day 0, 1000 ppm, contact 10 min) was less than 100, the “number of infectious viruses” value ([2]; wet wipe stored Day 0, 3000 ppm, contact 1 min) was less than 100 and the “number of infectious viruses” value ([2]; wet wipe stored Day 0, 3000 ppm, contact 5 min) was less than 100. For the same compound, the “number of infectious viruses” value ([2]; wet wipe stored Day 0, 3000 ppm, contact 10 min) was less than 100, the “number of infectious viruses” value ([2]; wet wipe stored Day 3, 1000 ppm, contact 1 min) was “Many” and the “number of infectious viruses” value ([2]; wet wipe stored Day 3, 1000 ppm, contact 5 min) was “Many”. For the same compound, the “number of infectious viruses” value ([2]; wet wipe stored Day 3, 1000 ppm, contact 10 min) was “Many”, the “number of infectious viruses” value ([2]; wet wipe stored Day 3, 3000 ppm, contact 1 min) was “Many” and the “number of infectious viruses” value ([2]; wet wipe stored Day 3, 3000 ppm, contact 5 min) was “Many”. The “number of infectious viruses” value ([2]; wet wipe stored Day 3, 3000 ppm, contact 10 min) was “Many”, the “number of infectious viruses” value ([3]; pH 5.5, 25 ppm, contact 0 min) was 5.4 ± 1.7 log CPU/mL and the “number of infectious viruses” value ([3]; pH 5.5, 50 ppm, contact 0 min) was 5.4 ± 1.7 log CPU/mL. For the same compound, the “number of infectious viruses” value ([3]; pH 5.5, 100 ppm, contact 0 min) was 5.4 ± 1.7 log CPU/mL, the “number of infectious viruses” value ([3]; pH 5.5, 200 ppm, contact 0 min) was 5.4 ± 1.7 log CPU/mL and the “number of infectious viruses” value ([3]; pH 5.5, 200 ppm, contact 5 min) was 3.7 ± 1.8 log CPU/mL. The “number of infectious viruses” value ([3]; pH 5.5, 200 ppm, contact 10 min) was 2.6 ± 1.8 log CPU/mL, the “number of infectious viruses” value ([3]; pH 5.5, 400 ppm, contact 0 min) was 5.4 ± 1.7 log CPU/mL and the “number of infectious viruses” value ([3]; pH 5.5, 400 ppm, contact 1 min) was less than 2.0 log CPU/mL. For the same compound, the “number of infectious viruses” value ([3]; pH 5.5, 400 ppm, contact 5 min) was less than 2.0 log CPU/mL, the “number of infectious viruses” value ([3]; pH 5.5, 400 ppm, contact 10 min) was less than 2.0 log CPU/mL and the “number of infectious viruses” value ([3]; pH 6.5, 25 ppm, contact 0 min) was 6.1 ± 2.1 log CPU/mL. For the same compound, the “number of infectious viruses” value ([3]; pH 6.5, 50 ppm, contact 0 min) was 6.1 ± 2.1 log CPU/mL, the “number of infectious viruses” value ([3]; pH 6.5, 100 ppm, contact 0 min) was 6.1 ± 2.1 log CPU/mL and the “number of infectious viruses” value ([3]; pH 6.5, 200 ppm, contact 0 min) was 6.1 ± 2.1 log CPU/mL. For the same compound, the “number of infectious viruses” value ([3]; pH 6.5, 200 ppm, contact 5 min) was 3.3 ± 2.9 log CPU/mL, the “number of infectious viruses” value ([3]; pH 6.5, 200 ppm, contact 10 min) was less than 2.0 log CPU/mL and the “number of infectious viruses” value ([3]; pH 6.5, 400 ppm, contact 0 min) was 6.1 ± 2.1 log CPU/mL. The “number of infectious viruses” value ([3]; pH 6.5, 400 ppm, contact 1 min) was less than 2.0 log CPU/mL, the “number of infectious viruses” value ([3]; pH 6.5, 400 ppm, contact 5 min) was less than 2.0 log CPU/mL and the “number of infectious viruses” value ([3]; pH 6.5, 400 ppm, contact 10 min) was less than 2.0 log CPU/mL. The “number of infectious viruses” value ([3]; pH 7.5, 25 ppm, contact 0 min) was 5.2 ± 2.6 log CPU/mL, the “number of infectious viruses” value ([3]; pH 7.5, 50 ppm, contact 0 min) was 5.2 ± 2.6 log CPU/mL and the “number of infectious viruses” value ([3]; pH 7.5, 50 ppm, contact 5 min) was 4.4 ± 1.8 log CPU/mL. For the same compound, the “number of infectious viruses” value ([3]; pH 7.5, 50 ppm, contact 10 min) was less than 2.0 log CPU/mL, the “number of infectious viruses” value ([3]; pH 7.5, 100 ppm, contact 0 min) was 5.2 ± 2.6 log CPU/mL and the “number of infectious viruses” value ([3]; pH 7.5, 100 ppm, contact 5 min) was 3.4 ± 1.8 log CPU/mL. The “number of infectious viruses” value ([3]; pH 7.5, 100 ppm, contact 10 min) was less than 2.0 log CPU/mL, the “number of infectious viruses” value ([3]; pH 7.5, 200 ppm, contact 0 min) was 5.2 ± 2.6 log CPU/mL and the “number of infectious viruses” value ([3]; pH 7.5, 200 ppm, contact 1 min) was 2.5 ± 1.8 log CPU/mL. The “number of infectious viruses” value ([3]; pH 7.5, 200 ppm, contact 5 min) was less than 2.0 log CPU/mL, the “number of infectious viruses” value ([3]; pH 7.5, 200 ppm, contact 10 min) was less than 2.0 log CPU/mL and the “number of infectious viruses” value ([3]; pH 7.5, 400 ppm, contact 0 min) was 5.2 ± 2.6 log CPU/mL. The “number of infectious viruses” value ([3]; pH 7.5, 400 ppm, contact 1 min) was less than 2.0 log CPU/mL, the “number of infectious viruses” value ([3]; pH 7.5, 400 ppm, contact 5 min) was less than 2.0 log CPU/mL and the “number of infectious viruses” value ([3]; pH 7.5, 400 ppm, contact 10 min) was less than 2.0 log CPU/mL. For the same compound, the “number of infectious viruses” value ([3]; pH 8.5, 25 ppm, contact 0 min) was 4.7 ± 2.8 log CPU/mL, the “number of infectious viruses” value ([3]; pH 8.5, 50 ppm, contact 0 min) was 4.7 ± 2.8 log CPU/mL and the “number of infectious viruses” value ([3]; pH 8.5, 50 ppm, contact 1 min) was 4.6 ± 3.2 log CPU/mL. The “number of infectious viruses” value ([3]; pH 8.5, 50 ppm, contact 5 min) was 3.5 ± 2.1 log CPU/mL, the “number of infectious viruses” value ([3]; pH 8.5, 50 ppm, contact 10 min) was less than 2.0 log CPU/mL and the “number of infectious viruses” value ([3]; pH 8.5, 100 ppm, contact 0 min) was 4.7 ± 2.8 log CPU/mL. The “number of infectious viruses” value ([3]; pH 8.5, 100 ppm, contact 1 min) was 3.7 ± 2.6 log CPU/mL.
